Here are results for 76 compounds from PubChem BioAssay AID1996.

Structures are written as SMILES. Values after ≈ are worked out from the molar mass of the structure shown. Where only a bound is given, the exact number is not on record here.

The conditions of this series: buffer; pH 7.4; 200.0 µM.
As to `CC[C@H](C)[C@H](NC(N)=O)C(=O)Nc1ccccc1F`, the solubility (kinetic) (in general, the concentration staying in solution when a stock, usually in DMSO, is diluted into the medium) is greater than 40.1 µg/mL. Then `O=[N+]([O-])c1ccccc1Nc1ccccc1`, with 1.1 µg/mL (≈ 5.13 µM); and `CCNC(=S)N1CCCCC1CO` (stereo unspecified), with 27.2 µg/mL (≈ 134 µM). Then `O=C(NCc1ccco1)c1cnn2cccnc12`, with greater than 36.3 µg/mL. Then `Cc1ccc(NC(=O)/C=C/C(=O)O)c(NC(=O)c2ccccc2)c1`, with greater than 48.7 µg/mL. `CCC(C)[C@H](NC(=O)N1CCCCCC1)C(=O)OC` (stereo partly specified) displayed a solubility (kinetic) of 1.2 µg/mL (≈ 4.44 µM). Then `CCCCN1C(=O)C(=O)N(CC(=O)Nc2ccc(OC(F)(F)F)cc2)C1=O`, with 6.6 µg/mL (≈ 17 µM). Then `CC1(CCCN2C(=O)c3ccccc3C2=O)OCCO1`, with greater than 41.3 µg/mL; and `NC(=NCCc1ccc(Cl)cc1)NS(=O)(=O)c1ccccc1`, with 47.5 µg/mL (≈ 141 µM); and `Cc1cccc2c(CCN)c[nH]c12.Cl`, with greater than 31.6 µg/mL. Then `CN(C)C(=S)NC1CCS(=O)(=O)C1` (stereo unspecified), with greater than 33.3 µg/mL. `CSc1cc(-c2ccncc2)nc(-c2ccc(Cl)cc2)c1` displayed a solubility (kinetic) of less than 0.3 µg/mL. `CCN1CCc2c(OCC(=O)N3CCCCC3)cccc2C1=O` displayed a solubility (kinetic) greater than 47.5 µg/mL.

For the compound `Cc1cc(Cl)ccc1OC(C)C(=O)NCCCn1ccnc1` (stereo unspecified), the solubility (kinetic) is greater than 48.3 µg/mL. As to `CC(C)OP(=O)(OC(C)C)C(Nc1ccc(C(=O)O)cc1)c1ccccc1` (stereo unspecified), the solubility (kinetic) is greater than 58.7 µg/mL. Then `Cc1ccccc1CSc1ccc(S(=O)(=O)N2CCCC2)cn1`, with 3.1 µg/mL (≈ 8.9 µM); and `COc1ccc(C(=O)Nc2ccccc2C(=O)Nc2ccc(C(=O)O)cc2)cc1`, with greater than 58.6 µg/mL; and `Cc1ccc(/C=C2\C(=O)NC(=O)N(CC3CCCO3)C2=O)s1` (stereo unspecified), with greater than 48.1 µg/mL. Then `c1ccc(-c2nc3ccccn3c2-c2ccccc2)cc1`, with 10.1 µg/mL (≈ 37.4 µM). Then `Cc1ccc(CN2C(=O)CSC2c2cccnc2)cc1` (stereo unspecified), with greater than 42.7 µg/mL; and `Nc1nc(-c2ccc3c(c2)CCCC3)c(CC(=O)O)s1`, with 42.3 µg/mL (≈ 147 µM). On to `COC(=O)c1ccn(CC(=O)NC2CCCCC2)n1`, for which the kinetic solubility was greater than 39.8 µg/mL.

Compound `O=C(CSc1ncnc2nc[nH]c12)c1ccc([N+](=O)[O-])cc1` returned a kinetic solubility of 2.6 µg/mL (≈ 8.25 µM). For `N#CC(c1cccnc1)N1CCOCC1` (stereo unspecified), the solubility (kinetic) is greater than 30.5 µg/mL. Then `COc1cc2c(cc1OC)CN(C(=O)c1ccc(Br)o1)CC2`, with greater than 54.9 µg/mL; and `O=C(NCc1cccnc1)c1cccs1`, with greater than 32.7 µg/mL; and `Cc1ccccc1S(=O)(=O)Nc1ncnc2sccc12`, with greater than 45.8 µg/mL. Then `O=C(O)/C=C/C(=O)NCC1CCC(CNC(=O)/C=C/C(=O)O)CC1` (stereo unspecified), with greater than 50.8 µg/mL.

`O=C(c1ccccc1)C1CCN(C(=O)c2c(F)cccc2F)CC1` showed a kinetic solubility greater than 49.4 µg/mL.

`Cc1onc(-c2ccccc2)c1C(=O)NC(C)CCc1ccccc1` (stereo unspecified) had a kinetic solubility of 1.1 µg/mL (≈ 3.29 µM).

`COc1ccc(NC(=S)NCc2ccccc2Cl)c(OC)c1`: the solubility (kinetic) was less than 0.4 µg/mL.

The compound `COC(=O)CCNC(=O)c1ccc2[nH]c(C)c(C)c2c1` displayed a kinetic solubility greater than 41.1 µg/mL. Regarding `NS(=O)(=O)c1ccc(CCNc2ccccc2[N+](=O)[O-])cc1`, the solubility (kinetic) is 2.9 µg/mL (≈ 9.02 µM).

The compound `Cn1c(=O)cc(Nc2ccccc2)[nH]c1=O` returned a kinetic solubility of 10.3 µg/mL (≈ 47.4 µM). Then `O=C(Nc1ccccc1Cl)c1ccc([N+](=O)[O-])o1`, with 39.4 µg/mL (≈ 148 µM). As for `COC(=O)c1c(C(C)=O)c(C)n(C)c1C`, the kinetic solubility is greater than 31.4 µg/mL.

For the compound `O=C(COC(=O)c1ccc[n+]([O-])c1)Nc1ccc([N+](=O)[O-])cc1C(F)(F)F`, the kinetic solubility is greater than 57.8 µg/mL. Then `CC(C)C1Cc2ccccc2-c2[nH]c(=S)[nH]c(=O)c21` (stereo unspecified), with 27 µg/mL (≈ 99.1 µM); and `CCc1ncc(/C=C2\C(=O)Nc3ccccc32)[nH]1`, with 6.7 µg/mL (≈ 28 µM); and `CC1CCCCC1NC1CCN(C)CC1` (stereo unspecified), with greater than 31.6 µg/mL. Then `COc1ccccc1Nc1nc(N)nc(CN2CCCCC2)n1`, with greater than 47.2 µg/mL; and `CCCN1C[C@H](CSC)C[C@@H]2c3cccc4[nH]cc(c34)C[C@H]21.CS(=O)(=O)O`, with 2.3 µg/mL; and `O=C1/C(=C/c2ccccn2)SC(=S)N1c1ccc(O)cc1`, with 0.5 µg/mL (≈ 1.59 µM). Compound `Cc1cccc(NC(=O)C2COc3ccccc3O2)n1` (stereo unspecified) yielded a solubility (kinetic) of 35.9 µg/mL (≈ 133 µM).

Consider `CCCCCNS(=O)(=O)c1cc2c3c(c1)CCC(=O)N3CCC2`, for which the kinetic solubility was 45.5 µg/mL (≈ 135 µM). On to `S=C(NCCc1ccccn1)Nc1cc(Cl)cc(Cl)c1`, for which the kinetic solubility is 19 µg/mL (≈ 58.2 µM). Then `CC(C)CC(=O)Nc1ccc(Cc2ccncc2)cc1`, with greater than 40.3 µg/mL. Then `COc1ccc(C(=O)NCCc2c[nH]c3ccccc23)cc1`, with 42.6 µg/mL (≈ 145 µM). Compound `CCOc1ccc(S(=O)(=O)NC2CCCCC2C)cc1` (stereo unspecified) had a solubility (kinetic) of 37.5 µg/mL (≈ 126 µM). In turn, `O=c1[nH]c(=S)n(-c2ccccc2)c(O)c1C=NCc1ccccn1` had a kinetic solubility greater than 50.8 µg/mL. Then `COC(=O)c1ccc(S(=O)(=O)N2CCC(C(N)=O)CC2)n1C`, with greater than 49.4 µg/mL; and `CCOC(=O)c1sc(NC(=O)CCN2C(=O)C3CCCCC3C2=O)cc1C` (stereo unspecified), with 15 µg/mL (≈ 38.2 µM); and `O=C(O)c1ccccc1C(=O)NC1CCCCNC1=O` (stereo unspecified), with greater than 41.4 µg/mL. Then `COC(=O)Cc1nc(NC(=O)c2cccs2)sc1C`, with greater than 44.5 µg/mL; and `CC(C)(C)c1ccc(OCC(=O)Nc2ccncc2)cc1`, with 3.7 µg/mL (≈ 13 µM). Then `Cc1ccc(C(C)NC(=O)c2c(-c3ccccc3)noc2C)cc1C` (stereo unspecified), with 2.4 µg/mL (≈ 7.18 µM). Turning to `Cc1[nH]c(=O)c(C#N)c(C)c1Cl`, the solubility (kinetic) is 26 µg/mL (≈ 142 µM). Then `O=C(Oc1ccc(Cl)c2cccnc12)c1cccnc1`, with 30 µg/mL (≈ 105 µM). As for `CCc1ccc(C(=O)OCC(=O)NC2CCCC2)cc1`, the solubility (kinetic) is 11.6 µg/mL (≈ 42.1 µM). This solubility kinetic lies about 2.6-fold lower than the previous one.

Consider `N#Cc1ccsc1NC(=O)CCN1C(=O)C2CCCCC2C1=O` (stereo unspecified), for which the solubility (kinetic) is greater than 49.7 µg/mL. Then `COc1ccc(C(C)NC(=O)C23CC4CC(CC(C4)C2)C3)cc1OC` (stereo unspecified), with 40.2 µg/mL (≈ 117 µM); and `CC(=O)N1CCN(c2ccc([N+](=O)[O-])c(NCc3cccnc3)c2)CC1`, with greater than 53.3 µg/mL.

Consider `C#CC(CCN1CCCCC1)(OC)c1ccccc1.Cl` (stereo unspecified), for which the kinetic solubility was 27.2 µg/mL. With `Cc1c(C)[n+](=O)c(-c2ccc(Br)cc2)c(C)n1[O-]`, the solubility (kinetic) is greater than 46.4 µg/mL.

`COC(=O)CCC(=O)NC(=S)Nc1ccccc1F` gave a kinetic solubility of 36.8 µg/mL (≈ 129 µM). Then `COc1ccc(NC(=O)C2CCCO2)c(OC)c1` (stereo unspecified), with 33.9 µg/mL (≈ 135 µM); and `CCOc1ccc(CNC(=S)Nc2ccccc2)cc1Cl`, with 1.6 µg/mL (≈ 4.99 µM). Then `N#Cc1cc(N)ccc1-n1cccc1`, with 27.2 µg/mL (≈ 148 µM); and `CCOCCCNCc1cc(Cl)cc(Cl)c1OCC.Cl`, with 44 µg/mL.

For the compound `Fc1ccc(Oc2ccnc(Cl)n2)c(Cl)c1`, the solubility (kinetic) was 16.9 µg/mL (≈ 65.2 µM). Then `Cc1cc(C)nc(N2CCCC(C(=O)NC3CC3)C2)n1` (stereo unspecified), with greater than 41.2 µg/mL; and `Oc1ccc(Cl)cc1CNc1ccccn1`, with 6.5 µg/mL (≈ 27.7 µM). Then `OC1(CC#CCN2CCCCC2)c2ccccc2-c2ccccc21`, with 42.2 µg/mL (≈ 133 µM); and `COc1ccccc1N1CN(CCc2ccccc2)CNC1=S`, with 45.4 µg/mL (≈ 139 µM). Then `CSc1ncc(C(=O)Nc2ccccc2F)c(-c2ccccc2)n1`, with 1.3 µg/mL (≈ 3.83 µM); and `CCOC(=O)CNC(=O)C1c2ccccc2Oc2ccccc21`, with 1.9 µg/mL (≈ 6.1 µM).
